According to paper PMC1568752 (Environmental Health Perspectives, 1985):

Legend:
[1] = test system: aryl hydrocarbon hydroxylase (AHH) induction in rat hepatoma H-4-II-E cells; conditions: Table 1, PCB congeners; cited from earlier work
[2] = test system: ethoxyresorufin O-deethylase (EROD) induction in rat hepatoma H-4-II-E cells; conditions: Table 1, PCB congeners; cited from earlier work
rats = conditions: cited from earlier work
[3] = test system: hepatic microsomal AHH and EROD; experiment: In vivo induction of rat hepatic microsomal AHH and EROD; conditions: 300 umole/kg, immature male Wistar rats (Figure 7)
[4] = target: T1, 2,3,7,8-TCDD hepatic cytosolic receptor protein (Rattus norvegicus, UniProt P41738); experiment: Competitive binding to the rat hepatic cytosolic 2,3,7,8-TCDD receptor protein; conditions: for competition with [3H]-2,3,7,8-TCDD for the receptor binding protein: dose-response competition experiments, at high concentrations
T1 sequence (P41738 10-853): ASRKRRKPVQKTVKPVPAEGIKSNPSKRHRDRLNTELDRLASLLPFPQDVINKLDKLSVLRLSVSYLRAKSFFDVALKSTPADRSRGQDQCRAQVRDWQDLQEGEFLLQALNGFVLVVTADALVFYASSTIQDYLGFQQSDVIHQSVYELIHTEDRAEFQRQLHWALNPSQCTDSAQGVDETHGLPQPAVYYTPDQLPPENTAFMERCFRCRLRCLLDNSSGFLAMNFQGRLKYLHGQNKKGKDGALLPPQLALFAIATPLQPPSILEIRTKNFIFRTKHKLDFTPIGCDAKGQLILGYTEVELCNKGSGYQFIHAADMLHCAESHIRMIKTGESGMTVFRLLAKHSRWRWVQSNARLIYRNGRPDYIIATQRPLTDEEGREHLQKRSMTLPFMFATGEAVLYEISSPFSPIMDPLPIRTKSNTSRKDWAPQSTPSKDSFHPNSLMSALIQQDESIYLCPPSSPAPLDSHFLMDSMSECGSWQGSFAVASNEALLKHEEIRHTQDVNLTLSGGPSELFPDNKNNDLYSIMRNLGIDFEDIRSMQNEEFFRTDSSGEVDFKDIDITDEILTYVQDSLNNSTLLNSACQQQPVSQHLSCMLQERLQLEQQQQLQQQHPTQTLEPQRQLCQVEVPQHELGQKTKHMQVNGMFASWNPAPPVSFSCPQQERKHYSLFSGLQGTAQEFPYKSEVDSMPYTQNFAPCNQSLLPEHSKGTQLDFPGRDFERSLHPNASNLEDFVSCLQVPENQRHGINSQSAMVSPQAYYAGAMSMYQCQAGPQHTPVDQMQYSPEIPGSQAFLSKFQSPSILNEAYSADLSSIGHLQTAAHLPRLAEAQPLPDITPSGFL

DMAP N-demethylase = experiment: In vivo induction of rat hepatic microsomal DMAP N-demethylase; conditions: 300 umole/kg, immature male Wistar rats (Figure 7)
pullets = conditions: eggs from pullets receiving the PCB in their diet at 20 ppm; cited from earlier work
[5] = injected intraperitoneally on days 1 and 3, 150 umole/kg per injection in corn oil, killed on day 6

SMILES	-log EC50 AHH induction [1]	-log EC50 EROD induction [2]	in vivo induction of DMAP N-demethylase (DMAP N-demethylase)	in vivo induction of microsomal AHH and EROD [3]	further results
Clc1ccc(-c2cc(Cl)c(Cl)c(Cl)c2Cl)cc1Cl [2,3,3',4,4',5-Hexa, 2,3,3',4,4',5-hexachlorobiphenyl]	5.68	6.05	–	–	thymic atrophy (rats): thymic atrophy
Clc1cc(-c2ccccc2)c(Cl)c(Cl)c1Cl [2,3,4,5-Tetra, 2,3,4,5-tetrachlorobiphenyl]	–	–	–	–	in vivo induction of the cytochrome P-450-dependent monooxygenases (AHH, EROD, DMAP N-demethylase) [3]: do not induce any; competition with [3H]-2,3,7,8-TCDD for the receptor binding protein [4]: some competition
FC(F)(F)c1ccc(-c2ccc(C(F)(F)F)c(C(F)(F)F)c2)cc1 [3,4,4'-tritrifluoromethylbiphenyl]	–	–	–	–	competitive binding affinity for the receptor protein ([4]; displacement of [3H]-2,3,7,8-TCDD): unexpectedly low
CC(=O)c1ccc(-c2cc(Cl)c(Cl)c(Cl)c2Cl)cc1 [X = COCH3, 4'-Acetyl-2,3,4,5-tetrachlorobiphenyl]	–	–	–	–	in vivo induction of the cytochrome P-450-dependent monooxygenases (AHH, EROD, DMAP N-demethylase) [3]: do not induce any
Cc1ccc2cc3c(ccc4ccccc43)c3c2c1CC3 [3-MC, 3-methylcholanthrene, reference compound]	5.89	6.20	–	–	–
Clc1cc(Cl)c(-c2cc(Cl)c(Cl)cc2Cl)cc1Cl [2,2',4,4',5,5'-Hexa, 2,2',4,4',5,5'-hexachlorobiphenyl]	–	–	–	–	competition with [3H]-2,3,7,8-TCDD for the receptor binding protein [4]: some competition
Clc1cc(-c2ccc(I)cc2)c(Cl)c(Cl)c1Cl [X= I, 4'-Iodo-2,3,4,5-tetrachlorobiphenyl]	–	–	inactive	–	–
Clc1ccc(-c2cc(Cl)c(Cl)cc2Cl)cc1Cl [2,3',4,4',5-Penta, 2,3',4,4',5-pentachlorobiphenyl]	4.94	5.05	–	–	embryo mortality (pullets): 100%; thymic atrophy (rats): thymic atrophy
Fc1ccc(-c2cc(Cl)c(Cl)c(Cl)c2Cl)cc1 [X = F, 4'-Fluoro-2,3,4,5-tetrachlorobiphenyl]	–	–	inducers	significantly induced both	–
CC(C)c1ccc(-c2cc(Cl)c(Cl)c(Cl)c2Cl)cc1 [X = i-C3H7, 4'-Isopropyl-2,3,4,5-tetrachlorobiphenyl]	–	–	inactive	significantly induced both	Residue levels in rat liver [5]: 1-4 ppm
CC(C)(C)c1ccc(-c2cc(Cl)c(Cl)c(Cl)c2Cl)cc1 [C(CH3)3, 4'-tert-butyl-2,3,4,5-tetrachlorobiphenyl]	–	–	inactive	significantly induced both	–
Clc1ccc(-c2ccc(Cl)c(Cl)c2)cc1Cl [3,3',4,4'-Tetra, 3,3',4,4'-tetrachlorobiphenyl]	7.55	7.05	–	–	–
Clc1cc(-c2ccc(-c3ccccc3)cc2)c(Cl)c(Cl)c1Cl [C6H5, 4'-Phenyl-2,3,4,5-tetrachlorobiphenyl]	–	–	–	significantly induced both	–
Clc1ccc(-c2cc(Cl)c(Cl)c(Cl)c2Cl)cc1 [2,3,4,4',5-Penta, 2,3,4,4',5-Pentachlorobiphenyl]	6.02	6.25	inducers	significantly induced both	–
FC(F)(F)c1ccc(-c2cc(Cl)c(Cl)c(Cl)c2Cl)cc1 [X = CF3, 4'-Trifluoromethyl-2,3,4,5-tetrachlorobiphenyl]	–	–	inactive	significantly induced both	–
Cc1ccc(-c2cc(Cl)c(Cl)c(Cl)c2Cl)cc1 [X = CH3, 4'-Methyl-2,3,4,5-tetrachlorobiphenyl]	–	–	–	–	in vivo induction of the cytochrome P-450-dependent monooxygenases (AHH, EROD, DMAP N-demethylase) [3]: do not induce any
Clc1cc(-c2ccc(Cl)c(Cl)c2Cl)cc(Cl)c1Cl [2,3,3',4,4',5'-Hexa, 2,3,3',4,4',5'-hexachlorobiphenyl]	6.15	5.90	–	–	thymic atrophy (rats): thymic atrophy
Clc1ccc(-c2cc(Cl)c(Cl)c(Cl)c2)c(Cl)c1 [2',3,4,4',5-Penta]	5.41	5.95	–	–	–
O=[N+]([O-])c1ccc(-c2cc(Cl)c(Cl)c(Cl)c2Cl)cc1 [NO2, 4'-Nitro-2,3,4,5-tetrachlorobiphenyl]	–	–	inducers	significantly induced both	–
Clc1cc(-c2ccc(Br)cc2)c(Cl)c(Cl)c1Cl [X = Br, 4'-Bromo-2,3,4,5-tetrachlorobiphenyl]	–	–	inducers	significantly induced both	–
Oc1ccc(-c2cc(Cl)c(Cl)c(Cl)c2Cl)cc1 [X = OH, 4'-Hydroxy-2,3,4,5-tetrachlorobiphenyl]	–	–	–	–	in vivo induction of the cytochrome P-450-dependent monooxygenases (AHH, EROD, DMAP N-demethylase) [3]: do not induce any
Clc1cc2c(cc1Cl)Oc1cc(Cl)c(Cl)cc1O2 [TCDD, 2,3,7,8-tetrachlorodibenzo-p-dioxin, reference compound]	10.02	10.10	–	–	–
Clc1ccc(-c2ccc(Cl)c(Cl)c2Cl)cc1 [2,3,4,4'-Tetra]	4.96	5.72	–	–	–
Clc1ccc(-c2ccc(Cl)c(Cl)c2Cl)cc1Cl [2,3,3',4,4'-Penta, 2,3,3',4,4'-Pentachlorobiphenyl]	7.06	6.92	–	–	thymic atrophy (rats): thymic atrophy
Clc1ccc(-c2cc(Cl)c(Cl)c(Cl)c2)cc1Cl [3,3',4,4'5-Penta, 3,3',4,4',5-pentachlorobiphenyl]	9.62	9.61	–	–	–
N#Cc1ccc(-c2cc(Cl)c(Cl)c(Cl)c2Cl)cc1 [X = CN, 4'-Cyano-2,3,4,5-tetrachlorobiphenyl]	–	–	inducers	significantly induced both	–
Clc1cc(Cl)c(-c2cc(Cl)c(Cl)c(Cl)c2)cc1Cl [2,3',4,4',5,5'-Hexa]	4.88	5.05	–	–	–
